The values below come from ChEMBL document CHEMBL3817726, “Chemically Diverse Group I p21-Activated Kinase (PAK) Inhibitors Impart Acute Cardiovascular Toxicity with a Narrow Therapeutic Window” (J Med Chem, 2016).

Data set [1] is filed under the species Homo sapiens. The experiment in a line: Selectivity for human recombinant N-terminal 6-His-tagged PAK1 kinase domain (249 to 545 residues) over human recombinant PAK4 kinase domain.
The species named for data set [2] is Homo sapiens. The data set is described as follows: Selectivity for human recombinant N-terminal 6-His-tagged PAK1 kinase domain (249 to 545 residues) over LCK (unknown origin).
Data set [3] concerns the target Serine/threonine-protein kinase PAK 1 (Homo sapiens, UniProt Q13153). The data set is described as follows: Inhibition of human recombinant N-terminal 6-His-tagged PAK1 kinase domain (249 to 545 residues) expressed in Escherichia coli BL21(DE3) assessed as phosphorylation of coumarin labeled FRET peptide substrate at Ser/Thr19 preincubated for 10 mins followed by ATP addition measured after 60 mins by Z'-LYTE assay.

Data set [4] concerns the target Serine/threonine-protein kinase PAK 1/PAK 2 (Homo sapiens, UniProt Q13177+Q13153). The experiment in a line: Inhibition of PAK1/2 in human EBC1 cells assessed as phosphorylation of MEK1 at serine 298 after 2 hrs by HTRF assay. The data set is classed as cell-based. A general note: TR-FRET usually uses a lanthanide donor and a delayed reading to cut background.
Data set [5] is described as follows: Lipophilicity, log D of the compound at pH 7.4. Conditions: buffer. The data set is classed as physicochemical.
A short description of data set [6]: Kinetic solubility of the compound at pH 7.4. Format: physicochemical. Conditions: buffer, read-out: Kinetic_solubility.
Data set [7] in a line: Apparent permeability across apical to basolateral side in MDCK cells at 10 uM after 60 mins. The data set is classed as ADME, cell-based, Canis lupus familiaris. Conditions: dog.
Data set [8] can be described thus: Efflux ratio of permeability across basolateral to apical side over apical to basolateral side in MDCK cells at 10 uM after 60 mins. The data set is classed as ADME, cell-based, Canis lupus familiaris. Conditions: dog.
A short description of data set [9]: Apparent permeability across basolateral to apical side in MDCK cells at 10 uM after 60 mins. The data set is classed as ADME, cell-based, Canis lupus familiaris. The conditions noted are these: dog.

Structures are written as SMILES. In brackets after ≈: the same amount, converted by molar mass.

Chain of Serine/threonine-protein kinase PAK 1 (Q13153 whole entry, the tested form may be a part): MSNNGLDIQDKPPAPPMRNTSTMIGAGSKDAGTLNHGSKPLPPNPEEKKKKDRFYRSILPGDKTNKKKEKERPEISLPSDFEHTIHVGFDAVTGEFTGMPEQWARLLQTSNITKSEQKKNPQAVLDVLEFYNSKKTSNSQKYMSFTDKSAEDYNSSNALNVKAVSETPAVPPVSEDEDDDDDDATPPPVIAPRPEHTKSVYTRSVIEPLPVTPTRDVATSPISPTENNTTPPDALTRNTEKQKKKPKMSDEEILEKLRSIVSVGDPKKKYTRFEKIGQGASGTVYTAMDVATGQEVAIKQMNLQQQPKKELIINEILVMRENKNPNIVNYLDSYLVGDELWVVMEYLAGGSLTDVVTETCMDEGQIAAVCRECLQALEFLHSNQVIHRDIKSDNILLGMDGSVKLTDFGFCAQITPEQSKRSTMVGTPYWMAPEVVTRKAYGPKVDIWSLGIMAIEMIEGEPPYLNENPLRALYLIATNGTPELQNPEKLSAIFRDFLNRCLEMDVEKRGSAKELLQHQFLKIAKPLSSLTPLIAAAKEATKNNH

For the compound `CNc1ncc2cc(-c3ccc(N4CCN(C)C4=O)cc3Cl)c(=O)n(CCCN)c2n1`, the results for the Selectivity ratio in the data set filed under Homo sapiens [1] and in the data set listed under Homo sapiens [2] were over 52 and 10, respectively.
The Ki is a measure of affinity in units of concentration, obtained from inhibition or displacement. For the compound `CNc1ncc2cc(-c3ccc(-c4cccc(C)n4)cc3Cl)c(=O)n(CCCN)c2n1`, the Ki in data set [3] amounted to 3.3 nM. The Selectivity ratio in the data set filed under Homo sapiens [1] turned out to be 449; in the data set filed under Homo sapiens [2] it was 53.
For `CNc1ncc2cc(-c3ccc(-n4ccnc(C)c4=O)cc3Cl)c(=O)n(CCCN)c2n1` the same measures were 4.6 nM, over 642 and 429.
As usually defined, the IC50 is the concentration that gives 50% inhibition. What is called logD is lipophilicity at a set pH, counting ionised and neutral species. Low values mean lower lipophilicity, high ones higher lipophilicity. The Papp A→B is the apparent permeability from the apical to the basolateral side of a cell layer. In general, efflux ratio refers to a quotient of directional permeabilities that is used to spot active efflux. For the compound `CNc1ncc2cc(-c3ccc(-n4cccc(C)c4=O)cc3Cl)c(=O)n(CCOC)c2n1`, the Ki in data set [3] is 13 nM. In addition, in the data set listed under Homo sapiens [2], the Selectivity ratio turned out to be 38. Further, in [4], the IC50 is listed as 450 nM. In addition, in data set [5], the logD came out at 2.2. The solubility kinetic in data set [6] came out at 80 µM (≈ 36.2 µg/mL). Moreover, the Papp A→B at 1 h, 10 µM in data set [7] stood at 27 ×10⁻⁶ cm/s. Moreover, in data set [8], the efflux ratio at 1 h, 10 µM turned out to be 0.5.
With `CNc1ncc2cc(-c3ccccc3Cl)c(=O)n(CCCN)c2n1`, the Ki in [3] is 382 nM. In addition, the figures for the Selectivity ratio in the data set filed under Homo sapiens [1] and in the data set filed under Homo sapiens [2] were over 7.6 and 0.4, respectively.
Regarding `CNc1ncc2cc(-c3ccc(N4CCCC4=O)cc3Cl)c(=O)n(CCCN)c2n1`, the Ki in data set [3] was 89 nM. For the same compound, the Selectivity ratio in the data set listed under Homo sapiens [1] is over 33; in the data set filed under Homo sapiens [2], 25.
Regarding `CNc1ncc2cc(-c3ccc(-n4cccc(C)c4=O)cc3Cl)c(=O)n(CCOC3CN(C)C3)c2n1`, in data set [3], the Ki was 4.4 nM. For the same compound, the Selectivity ratio in the data set listed under Homo sapiens [2] was 86. For the same compound, the IC50 in data set [4] came out at 88 nM. In data set [5], the logD is 0.63. The solubility kinetic in data set [6] amounted to 71 µM (≈ 36 µg/mL). Also, the Papp A→B at 1 h, 10 µM in data set [7] turned out to be 0.2 ×10⁻⁶ cm/s. Also, in [8], the efflux ratio at 1 h, 10 µM was determined as 26.
A word on the Papp B→A: it is how fast a substance crosses the layer from the basolateral side. Take `CNc1ncc2cc(-c3ccc(-n4cccc(C)c4=O)cc3Cl)c(=O)n(CCCN)c2n1`: the Ki in data set [3] is 3.5 nM. The values for the Selectivity ratio in the data set filed under Homo sapiens [1] and in the data set listed under Homo sapiens [2] were 517 and 221, respectively. Further, the IC50 in data set [4] came out at 602 nM. Also, the logD in data set [5] amounted to 0.05. In data set [6], the solubility kinetic was 82 µM (≈ 37 µg/mL). Also, the Papp A→B at 1 h, 10 µM in data set [7] stood at 0.1 ×10⁻⁶ cm/s. The Papp B→A at 1 h, 10 µM in [9] is 0.33 ×10⁻⁶ cm/s. The efflux ratio at 1 h, 10 µM in data set [8] is 4.3.
With `CNc1ncc2cc(-c3ccc(-n4ccn(C)c4=O)cc3Cl)c(=O)n(CCCN)c2n1`, the Ki in [3] turned out to be 13 nM. The Selectivity ratio in the data set listed under Homo sapiens [1] is over 232; in the data set listed under Homo sapiens [2], 76.
Regarding `CNc1ncc2cc(-c3ccc(-n4cncc(C)c4=O)cc3Cl)c(=O)n(CCCN)c2n1`, the Ki in data set [3] was 6.7 nM. In addition, the Selectivity ratio in the data set listed under Homo sapiens [1] was over 443; in the data set listed under Homo sapiens [2], 282.
For `Cc1nccn(-c2ccc(-c3cc4cnc(NC5COC5)nc4n(CC4CCNCC4(F)F)c3=O)c(Cl)c2)c1=O` (single isomer, unassigned; enantiomer 2), in data set [3], the inhibition constant (Ki) was 12 nM.
With `CNc1ncc2cc(-c3ccc(-n4cccc(C)c4=O)cc3Cl)c(=O)n(CCO)c2n1`, the Ki in data set [3] worked out at 17 nM. The Selectivity ratio in the data set filed under Homo sapiens [2] worked out at 63. Besides, in data set [4], the IC50 was 930 nM. The same compound came in with a logD in data set [5] of 2.2. Moreover, the solubility kinetic in data set [6] amounted to 15 µM (≈ 6.57 µg/mL). Moreover, in data set [7], the Papp A→B at 1 h, 10 µM was determined as 5.5 ×10⁻⁶ cm/s. In data set [8], the efflux ratio at 1 h, 10 µM was 2.8.
`CNc1ncc2cc(-c3ccc(-n4cccc(C)c4=O)cc3Cl)c(=O)n(CC3CCNCC3(F)F)c2n1` (racemic): the Ki in [3] is 2.7 nM. In the data set listed under Homo sapiens [2], the Selectivity ratio was found to be 20. For the same compound, the IC50 in data set [4] amounted to 78 nM. In addition, the logD in [5] was 0.9. For the same compound, the solubility kinetic in data set [6] amounted to 115 µM (≈ 60.6 µg/mL). Further, in data set [7], the Papp A→B at 1 h, 10 µM worked out at 9.7 ×10⁻⁶ cm/s. Also, the efflux ratio at 1 h, 10 µM in data set [8] was found to be 1.3.
On to `CNc1ncc2cc(-c3ccc(-n4ccccc4=O)cc3Cl)c(=O)n(CCCN)c2n1`, for which the Ki in data set [3] was 36 nM. Further, the Selectivity ratio in the data set listed under Homo sapiens [1] is over 82; in the data set filed under Homo sapiens [2] it was 86.
As to `CCn1c(=O)c(-c2ccc(-n3cccc(C)c3=O)cc2Cl)cc2cnc(NC)nc21`, the Ki in [3] turned out to be 8 nM. In the data set filed under Homo sapiens [2], the Selectivity ratio stood at 53. The IC50 in [4] is given as 340 nM. Besides, in data set [5], the logD turned out to be 2.1. For the same compound, the solubility kinetic in data set [6] is 2.5 µM (≈ 1.05 µg/mL). The Papp A→B at 1 h, 10 µM in data set [7] stood at 28 ×10⁻⁶ cm/s. The efflux ratio at 1 h, 10 µM in data set [8] was determined as 0.4.
As to `COCCn1c(=O)c(-c2ccc(-n3cccc(C)c3=O)cc2Cl)cc2cnc(NC3COC3)nc21`, in data set [3], the Ki amounted to 5.9 nM. Further, the Selectivity ratio in the data set filed under Homo sapiens [2] came out at 158. Further, the IC50 in data set [4] is 290 nM. This compound also had a logD in [5] of 1.9. Also, the solubility kinetic in [6] was found to be 38 µM (≈ 18.8 µg/mL). Besides, the Papp A→B at 1 h, 10 µM in data set [7] is 7.6 ×10⁻⁶ cm/s. The efflux ratio at 1 h, 10 µM in data set [8] stood at 2.
On to `CNc1ncc2cc(-c3ccc(-n4cccc(C)c4=O)cc3Cl)c(=O)n(CC(F)(F)CN)c2n1`, for which, in [3], the Ki is 9 nM. The Selectivity ratio in the data set listed under Homo sapiens [2] is 56. In addition, in data set [4], the IC50 worked out at 460 nM. In data set [5], this compound gave a logD of 1.8. Also, the solubility kinetic in data set [6] worked out at 51 µM (≈ 24.8 µg/mL). For the same compound, the Papp A→B at 1 h, 10 µM in [7] was 8.4 ×10⁻⁶ cm/s. In addition, the Papp B→A at 1 h, 10 µM in data set [9] was 15.4 ×10⁻⁶ cm/s. Moreover, in data set [8], the efflux ratio at 1 h, 10 µM is 1.8.
